Results as given in patent US8198456B2, “Dihydropyridine derivatives as useful as protein kinase inhibitors” (Bayer Intellectual Property GmbH, priority 2006, dated 2012).
Where a name gives a salt, the structure may show the parent alone.

Each compound was assayed against T1, recombinant human c-MET kinase enzyme domain (Homo sapiens, UniProt P08581) (assay: c-MET receptor tyrosine kinase Homogeneous Time Resolved Fluorescence assay (HTRF)). Settings: Biological Example 1 and/or Biological Example 2.
T1 construct: Recombinant c-Met kinase domain (amino acids 960-1390); His (N); made in house; host or cells: baculovirus expression system (insect cells; SF21 is named only for the alternative format)
T1 sequence (P08581 960-1390): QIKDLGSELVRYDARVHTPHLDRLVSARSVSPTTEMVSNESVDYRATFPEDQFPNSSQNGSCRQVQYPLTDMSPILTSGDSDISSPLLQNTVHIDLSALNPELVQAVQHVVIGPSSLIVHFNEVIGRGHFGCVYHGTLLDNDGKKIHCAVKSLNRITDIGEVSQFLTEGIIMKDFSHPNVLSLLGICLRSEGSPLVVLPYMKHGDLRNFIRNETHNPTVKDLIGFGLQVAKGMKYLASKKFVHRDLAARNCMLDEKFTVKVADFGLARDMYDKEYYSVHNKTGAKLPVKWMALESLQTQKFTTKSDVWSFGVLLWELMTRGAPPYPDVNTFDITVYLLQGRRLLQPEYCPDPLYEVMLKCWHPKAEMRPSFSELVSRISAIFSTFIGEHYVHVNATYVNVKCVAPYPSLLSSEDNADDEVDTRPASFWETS
Assay type: biochemical
Source text: Recombinant c-Met kinase domain (amino acids 960-1390) was produced in a baculovirus expression vector as an N-terminal His-tagged fusion protein and purified on a NiNTA column. The resulting purified enzyme was then used in the following c-Met Homogeneous Time Resolved Fluorescence assay (HTRF) to find compounds of the invention and to perform initial activity determinations. Specifically, this assay measures the ability of compounds of the invention to inhibit the phosphorylation of a randomly synthesized, biotinylated heterocopolymeric polypeptide composed of glutamic acid and tyrosine, with an average length of 100 aa. The assay analyzes the amount of phosphorylated polypeptide produced.
The enzymatic phosphorylation of the biotinylated heterocopolymeric polypeptide was performed in a black 384-well plate at ambient temperature in a reaction mixture containing 50 mM HEPES (pH 7.4), 5 mM MgCl2, 5 mM MnCl2, 0.01% Tween-20, and 2 mM DTT, […] recombinant human c-MET kinase enzyme domain, 37 nM biotinylated heterocopolymeric polypeptide composed of glutamic acid and tyrosine, 20 μM ATP, 1% DMSO in the absence or presence of a compound of the invention. The reaction was stopped after a 20-minute incubation by the addition of 80 mM EDTA.
The formation of phosphorylated heterocopolymeric, biotinylated polypeptide was quantified with the HTRF assay technology using an anti-phosphotyrosine antibody, PT66, conjugated to europium cryptate, mixed with a streptavidin-XL665 conjugate. Reduced or inhibited phosphorylation of the heterocopolymeric, biotinylated polypeptide prevents the anti-phosphotyrosine antibody from binding to the peptide, resulting in a loss of energy transfer to the streptavidin-XL665 conjugate.
Following the 384-well enzymatic phosphorylation reaction outlined above, the detection of phosphorylated heterocopolymeric, biotinylated polypeptide was performed by dilution of the stopped reaction mixture 2-fold with 50 mM HEPES (pH 7.0), 500 mM KF, 0.1% BSA, streptavidin-XL665 (20 nM), and anti-phosphotyrosine antibody PT66-crypate conjugate (6.4 ng/well) and incubation for four hours at ambient temperature. Plates were read in an Envision plate reader (PerkinElmer Life and Analytical Sciences, Inc., MA) simultaneously at 620 nm and 665 nm to obtain signal ratios of 665 nm/620 nm. Results of energy transfer were expressed as signal ratios of 665 nm/620 nm. Negative controls were samples without recombinant c-MET or c-MET treated with 100 mM EDTA.
For determination of IC50 values of particular compounds of the invention, eight serially diluted compound concentrations (at 1:3.16 dilution) were used in the assay. Controls without a compound of the invention or with a reference compound were run in parallel in the same assay plate.
With `CC1=C(C#N)C(c2ccc3[nH]nc(NCc4ccc(C(=O)O)cc4)c3c2)C(C#N)=C(C)N1` [compound 136, 4-[[[5-(3,5-dicyano-1,4-dihydro-2,6-dimethyl-4-pyridinyl)-1H-indazol-3-yl]-amino]methyl]-benzoic acid] the IC50 was < 100 nM. For `CC1=C(C#N)C(c2ccc3[nH]nc(O)c3c2)C(C#N)=C(C)N1` [compound 176, 1,4-dihydro-4-(3-hydroxy-1H-indazol-5-yl)-2,6-dimethyl-3,5-pyridinedicarbonitrile], the IC50 was 500 to 2500 nM. `COC(=O)c1cccc(C2C(C#N)=C(C)NC(C3CCCN(C(C)=O)C3)=C2C#N)c1` (stereo not shown) [compound 229, 3-[2-(1-acetyl-3-piperidinyl)-3,5-dicyano-1,4-dihydro-6-methyl-4-pyridinyl]-benzoic acid, methyl ester] was tested, and the IC50 was 100 to 500 nM. With `CNC(=O)c1cccc(C2C(C#N)=C(C)NC(c3ccc(O)cc3)=C2C#N)c1` (stereo not shown) [compound 239, 3-[3,5-dicyano-1,4-dihydro-2-(4-hydroxyphenyl)-6-methyl-4-pyridinyl]-N-methyl-benzamide] the IC50 was 500 to 2500 nM. `CC1=C(C#N)C(c2ccc3[nH]nc(Br)c3c2)C(C#N)=C(C)N1` [compound 151, 4-(3-bromo-1H-indazol-5-yl)-1,4-dihydro-2,6-dimethyl-3,5-pyridinedicarbonitrile] was tested, and the IC50 was < 100 nM. With `CC1=C(C#N)C(c2ccc3[nH]nc(C)c3c2)C(C#N)=C(C)N1C` [compound 306, 1,4-dihydro-1,2,6-trimethyl-4-(3-methyl-1H-indazol-5-yl)-3,5-pyridinedicarbonitrile] the IC50 was < 100 nM. With `CC1=C(C#N)C(c2ccc3[nH]nc(-c4cn[nH]c4)c3c2)C(C#N)=C(C)N1` [compound 173, 1,4-dihydro-2,6-dimethyl-4-[3-(1H-pyrazol-4-yl)-1H-indazol-5-yl]-3,5-pyridinedicarbonitrile] the IC50 was < 100 nM. With `CC1=C(C#N)C(c2ccc3[nH]nc(NCc4ccc(N(C)CCO)cc4)c3c2)C(C#N)=C(C)N1` [compound 172, 1,4-dihydro-4-[3-[[[4-[(2-hydroxyethyl)methylamino]phenyl]methyl]amino]-H-indazol-5-yl]-2,6-dimethyl-3,5-pyridinedicarbonitrile] the IC50 was < 100 nM. Compound `CC1=C(C#N)C(c2cccc(C(=O)NCCCn3ccnc3)c2)C(C#N)=C(c2cccc(N)c2)N1` (stereo not shown) [compound 246, 3-[2-(3-aminophenyl)-3,5-dicyano-1,4-dihydro-6-methyl-4-pyridinyl]-N-[3-(1H-imidazol-1-yl)propyl]-benzamide] has an IC50 of 100 to 500 nM. With `CC(=O)c1n[nH]c2ccc(C3C(C#N)=C(C)NC(C)=C3C#N)cc12` [compound 158, 4-(3-acetyl-1H-indazol-5-yl)-1,4-dihydro-2,6-dimethyl-3,5-pyridinedicarbonitrile] the IC50 was < 100 nM. For `CC1=C(C#N)C(c2ccc3[nH]ncc3c2)C(C#N)=C(C)N1CCO` [compound 292, 1,4-dihydro-1-(2-hydroxyethyl)-4-(1H-indazol-5-yl)-2,6-dimethyl-3,5-pyridinedicarbonitrile], the IC50 was < 100 nM. `CCN1C(C)=C(C#N)C(c2ccc3[nH]nc(N)c3c2)C(C#N)=C1C` [compound 294, 1-ethyl-4-(3-amino-1H-indazol-5-yl)-1,4-dihydro-2,6-dimethyl-3,5-pyridinedicarbonitrile] was tested, and the IC50 was < 100 nM. With `CCOC(=O)N1CCN(Cc2n[nH]c3ccc(C4C(C#N)=C(C)NC(C)=C4C#N)cc23)CC1` [167.1, 4-[5-(3,5-Dicyano-2,6-dimethyl-1,4-dihydro-pyridin-4-yl)-1H-indazol-3-ylmethyl]-piperazine-1-carboxylic acid ethyl ester, TFA salt] the IC50 was < 100 nM. `CC1=C(C#N)C(c2ccc3[nH]nc(C(=O)O)c3c2)C(C#N)=C(C)N1` [compound 86, 5-(3,5-dicyano-1,4-dihydro-2,6-dimethyl-4-pyridinyl)-1H-indazole-3-carboxylic acid] was tested, and the IC50 was < 100 nM. `CC1=C(C#N)C(c2ccc3[nH]nc(N4CCNCC4)c3c2)C(C#N)=C(C)N1` [compound 164, 1,4-dihydro-2,6-dimethyl-4-[3-(1-piperazinyl)-1H-indazol-5-yl]-3,5-pyridinedicarbonitrile] was tested, and the IC50 was < 100 nM. For `CC1=C(C#N)C(c2ccc3[nH]ncc3c2)C(C#N)=C(c2ccc(NCCN3CCOCC3)nc2)N1` (stereo not shown) [compound 274, 1,4-dihydro-4-(1H-indazol-5-yl)-6-methyl-6′-[[2-(4-morpholinyl)ethyl]amino]-[2,3′-bipyridine]-3,5-dicarbonitrile], the IC50 was < 100 nM. `CC1=C(C#N)C(c2cccc(C(=O)Nc3ccc(C(F)(F)F)cn3)c2)C(C#N)=C(C)N1` [compound 60, 3-(3,5-dicyano-1,4-dihydro-2,6-dimethyl-4-pyridinyl)-N-[5-(trifluoromethyl)-2-pyridinyl]-benzamide] showed an IC50 of 500 to 2500 nM. `CC1=C(C#N)C(c2cccc(NC(=O)CBr)c2)C(C#N)=C(C)N1` [compound 47, 2-bromo-N-[3-(3,5-dicyano-1,4-dihydro-2,6-dimethyl-4-pyridinyl)phenyl]-acetamide] gave an IC50 of 500 to 2500 nM. In the case of `CNC(=O)c1n[nH]c2ccc(C3C(C#N)=C(C)NC(C)=C3C#N)cc12` [99.1, 5-(3,5-dicyano-1,4-dihydro-2,6-dimethyl-4-pyridinyl)-N-methyl-1H-indazole-3-carboxamide, TFA salt], the IC50 is reported as < 100 nM. Work on `CC1=C(C#N)C(c2cccc(C(=O)Nc3ccc(CO)cn3)c2)C(C#N)=C(C)N1` [compound 72, 3-(3,5-dicyano-1,4-dihydro-2,6-dimethyl-4-pyridinyl)-N-[5-(hydroxymethyl)-2-pyridinyl]-benzamide] yielded an IC50 of 100 to 500 nM. `CC1=C(C#N)C(c2ccc3[nH]nc(C(=O)NCCC4CCCN4C)c3c2)C(C#N)=C(C)N1` (stereo not shown) [compound 125, 5-(3,5-dicyano-1,4-dihydro-2,6-dimethyl-4-pyridinyl)-N-[2-(1-methyl-2-pyrrolidinyl)ethyl]-1H-indazole-3-carboxamide] was tested, and the IC50 was < 100 nM. With `CC1=C(C#N)C(c2ccc3[nH]nc(N)c3c2)C(C#N)=C(C)N1C` [compound 288, 4-(3-amino-1H-indazol-5-yl)-1,4-dihydro-1,2,6-trimethyl-3,5-pyridinedicarbonitrile] the IC50 was < 100 nM. `CC1=C(C#N)C(c2cccc(C(=O)Nc3cccnc3)c2)C(C#N)=C(C)N1` [compound 21, 3-(3,5-dicyano-1,4-dihydro-2,6-dimethyl-4-pyridinyl)-N-3-pyridinyl-benzamide] was tested, and the IC50 was 100 to 500 nM. Work on `COC(=O)c1cccc(C2C(C#N)=C(C)N(C)C(C)=C2C#N)c1` [compound 284, 3-(3,5-dicyano-1,4-dihydro-1,2,6-trimethyl-4-pyridinyl)-benzoic acid, methyl ester] yielded an IC50 of 500 to 2500 nM. In the case of `CC(=O)Nc1cccc(C2=C(C#N)C(c3ccc4[nH]ncc4c3)C(C#N)=C(C)N2)c1` (stereo not shown) [compound 253, N-[3-[3,5-dicyano-1,4-dihydro-4-(1H-indazol-5-yl)-6-methyl-2-pyridinyl]-phenyl]-acetamide], the IC50 is reported as < 100 nM. For `CC1=C(C#N)C(c2ccc3[nH]nc(-c4ccc(N5CCNCC5)cc4)c3c2)C(C#N)=C(C)N1` [compound 111, 1,4-dihydro-2,6-dimethyl-4-[3-[4-(1-piperazinyl)phenyl]-1H-indazol-5-yl]-3,5-pyridinedicarbonitrile], the IC50 was < 100 nM. In the case of `CC1=C(C#N)C(c2ccc3[nH]ncc3c2)C(C#N)=C(c2cccnc2)N1` (stereo not shown) [compound 266, 1,4-dihydro-4-(1H-indazol-5-yl)-6-methyl-[2,3′-bipyridine]-3,5-dicarbonitrile], the IC50 is reported as < 100 nM. In the case of `CC1=C(C#N)C(c2cccc(C(=O)NCCC3CCNCC3)c2)C(C#N)=C(C)N1` [compound 26, 3-(3,5-dicyano-1,4-dihydro-2,6-dimethyl-4-pyridinyl)-N-[2-(4-piperidinyl)ethyl]-benzamide], the IC50 is reported as 100 to 500 nM. In the case of `CC1=C(C#N)C(c2ccc3[nH]ncc3c2)C(C#N)=C(c2ccc(N3CCOCC3)c(F)c2)N1` (stereo not shown) [compound 272, 2-[3-fluoro-4-(4-morpholinyl)phenyl]-1,4-dihydro-4-(1H-indazol-5-yl)-6-methyl-3,5-pyridinedicarbonitrile], the IC50 is reported as < 100 nM. In the case of `CC1=C(C#N)C(c2ccc3[nH]ncc3c2)C(C#N)=C(c2ccccc2)N1` (stereo not shown) [compound 249, 1,4-dihydro-4-(1H-indazol-5-yl)-2-methyl-6-phenyl-3,5-pyridinedicarbonitrile], the IC50 is reported as < 100 nM. With `CC1=C(C#N)C(c2ccc3[nH]nc(NCCN4CCOCC4)c3c2)C(C#N)=C(C)N1` [compound 307, 1,4-dihydro-2,6-dimethyl-4-[3-[[2-(4-morpholinyl)ethyl]amino]-1H-indazol-5-yl]-3,5-pyridinedicarbonitrile] the IC50 was < 100 nM.
